In test [1] the test system is Magnaporthe grisea. As to the kind of experiment: whole plant or invertebrate. It counts as in vivo. The note with it: Blast on rice; class of control value.
Test [2] relates to Alternaia brassicicola. In words: Test Example C: Alternaria sooty spot on cabbage. It counts as in vivo. The note with it: Alternaria sooty spot on cabbage; class of control value. From the text: Seeds of a test plant (cabbage variety: Shikidori) were planted and cultivated until the cotyledons extended.
<Control Value> Control value=100{1−(n/3)}

Test [3] relates to Puccinia recondita. As to the kind of experiment: Test Example E: Brown rust on wheat. It counts as in vivo. Particulars: Brown rust on wheat; class of control value.
In test [4] the test system is Phytophthora infestans. In words: whole plant or invertebrate. It counts as in vivo. Particulars: Late blight on tomato; class of control value.
Test [5] deals with Botrytis cinerea. As to the kind of experiment: Test Example B: Gray mold on tomato. The note with it: Gray mold on tomato; class of control value.
The test system of test [6] is Plasmopara viticola. In words: Test Example G: Downy mildew on vine. The note with it: Downy mildew on vine (Neomuscat); 250 ppm spray, 2.5 ml/pot; assessed 7 to 10 days after inoculation.
Test [7] concerns Colletotrichum orbiculare. As to the kind of experiment: Test Example H: Anthracnose on cucumber. Particulars: Anthracnose on cucumber (Sagami Hanjiro); 250 ppm spray, 2.5 ml/pot; assessed 6 to 10 days after inoculation.
For test [8], the system named is Blumeria graminis f. sp. hordei. In words: Test Example D: Powdery mildew on barley. Particulars: Powdery mildew on barley; class of control value.

Structures are written as SMILES.

Regarding `CCn1c(-c2ccc(Br)cc2F)c(CC(C)C)ccc1=O` [compound 136], the “Test A control value class” value in test [1] was “H (more than 50% control value)”. Moreover, the “Test C control value class” value in test [2] is on record as “L (50% or less control value)”. Also, in test [3], the “Test E control value class” value is “H (more than 50% control value)”. Besides, the “Test F control value class” value in test [4] is given as “L (50% or less control value)”. The “Test B control value class” value in test [5] was “H (more than 50% control value)”. Moreover, the “Test G control value class” value in test [6] is “H (more than 50% control value)”. Besides, in test [7], the “Test H control value class” value is “L (50% or less control value)”. Further, in test [8], the “Test D control value class” value is “H (more than 50% control value)”.

As to `CC(C)Cc1cc(Cl)c(=O)n(C)c1-c1ccc(Cl)cc1Cl` [compound 137], in test [1], the “Test A control value class” value was “H (more than 50% control value)”. The “Test C control value class” value in test [2] was “H (more than 50% control value)”. Besides, the “Test E control value class” value in test [3] is “H (more than 50% control value)”. Besides, the “Test F control value class” value in test [4] is reported as “L (50% or less control value)”. Moreover, the “Test B control value class” value in test [5] is “H (more than 50% control value)”. The “Test G control value class” value in test [6] was “H (more than 50% control value)”. In test [7], the “Test H control value class” value is “H (more than 50% control value)”. Besides, the “Test D control value class” value in test [8] is listed as “H (more than 50% control value)”.

For the compound `CC(C)Cc1cc(Br)c(=O)n(C)c1-c1ccc(Cl)cc1Cl` [compound 138], in test [1], the “Test A control value class” value is “H (more than 50% control value)”. Further, the “Test C control value class” value in test [2] is reported as “H (more than 50% control value)”. Also, in test [3], the “Test E control value class” value is recorded as “H (more than 50% control value)”. Besides, the “Test F control value class” value in test [4] is recorded as “L (50% or less control value)”. For the same compound, in test [5], the “Test B control value class” value is “H (more than 50% control value)”. Further, the “Test G control value class” value in test [6] is recorded as “L (50% or less control value)”. In test [7], the “Test H control value class” value is listed as “H (more than 50% control value)”. Also, in test [8], the “Test D control value class” value is listed as “L (50% or less control value)”.

`CCn1c(-c2ccc(Cl)cc2Cl)c(CC(C)C)cc(Cl)c1=O` [compound 139]: in test [1], the “Test A control value class” value is on record as “H (more than 50% control value)”. Besides, the “Test C control value class” value in test [2] was “H (more than 50% control value)”. The “Test E control value class” value in test [3] is “H (more than 50% control value)”. In addition, in test [4], the “Test F control value class” value is reported as “L (50% or less control value)”. In test [5], the “Test B control value class” value was “H (more than 50% control value)”. For the same compound, the “Test G control value class” value in test [6] was “H (more than 50% control value)”. Also, the “Test H control value class” value in test [7] is given as “H (more than 50% control value)”. In addition, the “Test D control value class” value in test [8] was “H (more than 50% control value)”.

For `CCn1c(-c2ccc(Cl)cc2Cl)c(CC(C)C)cc(Br)c1=O` [compound 140], the “Test A control value class” value in test [1] is “H (more than 50% control value)”. In addition, in test [2], the “Test C control value class” value is “H (more than 50% control value)”. Besides, the “Test E control value class” value in test [3] was “H (more than 50% control value)”. The “Test F control value class” value in test [4] is “L (50% or less control value)”. In addition, in test [5], the “Test B control value class” value is given as “H (more than 50% control value)”. The “Test G control value class” value in test [6] is on record as “H (more than 50% control value)”. Besides, in test [7], the “Test H control value class” value was “H (more than 50% control value)”. Moreover, the “Test D control value class” value in test [8] is reported as “H (more than 50% control value)”.

For `CCn1c(-c2ccc(C)cc2F)c(CC(C)C)ccc1=O` [compound 141], the “Test A control value class” value in test [1] is reported as “H (more than 50% control value)”. Also, the “Test C control value class” value in test [2] was “H (more than 50% control value)”. The “Test E control value class” value in test [3] was “H (more than 50% control value)”. In test [4], the “Test F control value class” value was “L (50% or less control value)”. In addition, in test [5], the “Test B control value class” value is listed as “H (more than 50% control value)”. Moreover, the “Test G control value class” value in test [6] was “H (more than 50% control value)”. The “Test H control value class” value in test [7] is “L (50% or less control value)”. In addition, the “Test D control value class” value in test [8] is listed as “H (more than 50% control value)”.

Turning to `CCn1c(-c2ccc(Br)cc2F)c(CC(C)C)cc(Br)c1=O` [compound 142], the “Test A control value class” value in test [1] is given as “H (more than 50% control value)”. Besides, the “Test C control value class” value in test [2] was “H (more than 50% control value)”. The “Test E control value class” value in test [3] is on record as “H (more than 50% control value)”. For the same compound, the “Test F control value class” value in test [4] is “L (50% or less control value)”. Also, the “Test B control value class” value in test [5] is “H (more than 50% control value)”. Moreover, the “Test G control value class” value in test [6] was “H (more than 50% control value)”. The “Test H control value class” value in test [7] is listed as “H (more than 50% control value)”. In addition, the “Test D control value class” value in test [8] is on record as “H (more than 50% control value)”.

`CCn1c(-c2ccc(Br)cc2F)c(CC(C)C)cc(Cl)c1=O` [compound 143]: the “Test A control value class” value in test [1] is on record as “H (more than 50% control value)”. Also, the “Test C control value class” value in test [2] is “H (more than 50% control value)”. Also, the “Test E control value class” value in test [3] is “H (more than 50% control value)”. In addition, the “Test F control value class” value in test [4] is given as “L (50% or less control value)”. Besides, in test [5], the “Test B control value class” value was “H (more than 50% control value)”. In addition, the “Test G control value class” value in test [6] was “H (more than 50% control value)”. The “Test H control value class” value in test [7] is listed as “H (more than 50% control value)”. Besides, in test [8], the “Test D control value class” value was “H (more than 50% control value)”.

Consider `CCn1c(-c2ccc(F)cc2)c(CC(C)C)ccc1=O` [compound 144], for which, in test [1], the “Test A control value class” value was “L (50% or less control value)”. In addition, the “Test C control value class” value in test [2] is reported as “H (more than 50% control value)”. Further, in test [3], the “Test E control value class” value is listed as “H (more than 50% control value)”. For the same compound, the “Test F control value class” value in test [4] is recorded as “L (50% or less control value)”. Also, in test [5], the “Test B control value class” value is “L (50% or less control value)”. Also, the “Test G control value class” value in test [6] is “H (more than 50% control value)”. In test [7], the “Test H control value class” value is recorded as “L (50% or less control value)”. Moreover, the “Test D control value class” value in test [8] is given as “H (more than 50% control value)”.

In the case of `CC(C)Cc1ccc(=O)n(C)c1-c1ccc(F)cc1` [compound 145], the “Test A control value class” value in test [1] is listed as “L (50% or less control value)”. For the same compound, the “Test C control value class” value in test [2] is “H (more than 50% control value)”. The “Test E control value class” value in test [3] was “H (more than 50% control value)”. Moreover, the “Test F control value class” value in test [4] is “L (50% or less control value)”. Further, the “Test B control value class” value in test [5] is “L (50% or less control value)”. Also, in test [6], the “Test G control value class” value is “L (50% or less control value)”. The “Test H control value class” value in test [7] is “L (50% or less control value)”. Also, the “Test D control value class” value in test [8] is given as “L (50% or less control value)”.

Regarding `CCn1c(-c2ccc(C)cc2F)c(CC(C)C)cc(Cl)c1=O` [compound 146], the “Test A control value class” value in test [1] is “H (more than 50% control value)”. Also, the “Test C control value class” value in test [2] is given as “H (more than 50% control value)”. In addition, in test [3], the “Test E control value class” value is on record as “H (more than 50% control value)”. The “Test F control value class” value in test [4] was “L (50% or less control value)”. In test [5], the “Test B control value class” value is recorded as “H (more than 50% control value)”. The “Test G control value class” value in test [6] is on record as “H (more than 50% control value)”. Moreover, in test [7], the “Test H control value class” value was “L (50% or less control value)”. In test [8], the “Test D control value class” value was “H (more than 50% control value)”.

`CCn1c(-c2ccc(C)cc2F)c(CC(C)C)cc(Br)c1=O` [compound 147]: in test [1], the “Test A control value class” value is given as “H (more than 50% control value)”. For the same compound, the “Test C control value class” value in test [2] is given as “H (more than 50% control value)”. In test [3], the “Test E control value class” value is on record as “H (more than 50% control value)”. The “Test F control value class” value in test [4] is “L (50% or less control value)”. Also, the “Test B control value class” value in test [5] is “H (more than 50% control value)”. The “Test G control value class” value in test [6] is listed as “H (more than 50% control value)”. In test [7], the “Test H control value class” value is given as “L (50% or less control value)”. The “Test D control value class” value in test [8] is reported as “H (more than 50% control value)”.

Regarding `CCn1c(-c2ccc(F)cc2)c(CC(C)C)cc(Br)c1=O` [compound 148], the “Test A control value class” value in test [1] is on record as “H (more than 50% control value)”. Also, in test [2], the “Test C control value class” value is listed as “H (more than 50% control value)”. Besides, the “Test E control value class” value in test [3] was “H (more than 50% control value)”. Further, in test [4], the “Test F control value class” value is given as “L (50% or less control value)”. Besides, the “Test B control value class” value in test [5] is given as “H (more than 50% control value)”. The “Test G control value class” value in test [6] was “H (more than 50% control value)”. Further, the “Test H control value class” value in test [7] was “H (more than 50% control value)”. In addition, the “Test D control value class” value in test [8] was “H (more than 50% control value)”.

On to `CCn1c(-c2ccc(F)cc2)c(CC(C)C)cc(Cl)c1=O` [compound 149], for which the “Test A control value class” value in test [1] was “H (more than 50% control value)”. Further, in test [2], the “Test C control value class” value is recorded as “H (more than 50% control value)”. Moreover, the “Test E control value class” value in test [3] is listed as “H (more than 50% control value)”. Besides, the “Test F control value class” value in test [4] is reported as “L (50% or less control value)”. The “Test B control value class” value in test [5] was “H (more than 50% control value)”. Moreover, the “Test G control value class” value in test [6] is given as “H (more than 50% control value)”. For the same compound, in test [7], the “Test H control value class” value is “H (more than 50% control value)”. The “Test D control value class” value in test [8] is given as “H (more than 50% control value)”.
